In patent US10744114B2, “Use of eupatilin as pharmaceutical composition for prevention and treatment of fibrosis using EMT inhibitory activity” (OSTEONEUROGEN INC., priority 2016, dated 2020):

System: ONGHEPA1 cells
Test: TGF-β-induced fibrosis of ONGHEPA1 cells (microscope)
Assay type: cell-based, mouse
Details: 24 hr; for inhibition of the progress of fibrosis (differentiation into myofibroblasts): TGF-β 5 ng/mL plus 50 μM compound; for toxicity to ONGHEPA1 cells: TGF-β plus 50 μM compound
From the text: The liver tissue was separated from C57BL/6 mice and a single-cell suspension thereof was made, and immortalized cells were obtained through continuous culture and were confirmed to be mesenchymal stem cells (MSC) of HSC via RT-PCR (Reverse Transcription Polymerase Chain Reaction) using MC (Immunohistochemistry) and FACS (Fluorescence-Activated Cell Sorting). This cell line was called “ONGHEPA1”, and was deposited with the Korean Collection for Type Cultures (KCTC) of the Korea Research Institute of Bioscience and Biotechnology and assigned accession number KCTC13086BP.
Using such properties of HSC, the fibrotic characteristics of ONGHEPA1 were measured. To induce fibrosis, TGF-β (transforming growth factor beta) was added, and the morphologies of the cells were observed after 6 hr, 12 hr, 24 hr, and 48 hr. Consequently, fibrosis was confirmed to progress considerably after 24 hr and further progress after 48 hr (A of FIG. 6).
While ONGHEPA1 cells were incubated, they were treated with TGF-β to induce fibrosis, and 50 μM of eupatilin was added to the culture medium.
In order to more clearly evaluate the effect of eupatilin as above, changes were measured when ONGHEPA1 cells were first treated with eupatilin, washed to remove eupatilin and then treated with TGF-β to induce fibrosis. […] This means that eupatilin is directly associated with the course of fibrosis to thus inhibit the progress of fibrosis.
On the contrary, changes were measured when ONGHEPA1 cells were first treated with TGF-β to induce fibrosis, washed to remove TGF-β and then treated with eupatilin. […] Even when fibrosis was already progressed, eupatilin was able to restore the cells to their original normal condition.
In order to more clearly evaluate whether eupatilin was able to restore the cells that already undergone fibrosis to normal cells, changes were measured when ONGHEPA1 cells were treated with TGF-β for 24 hr to induce complete fibrosis and then treated with eupatilin. […] This means that fibrosis that has progressed considerably can be effectively treated using eupatilin.
The effects of various chromone derivatives other than eupatilin on fibrosis were measured in the same manner as in Example 3-3. While ONGHEPA1 cells were incubated, fibrosis was induced by TGF-β, and a chromone derivative was added at a concentration of 50 μM to the culture medium.

SMILES: COc1c(-c2ccccc2)oc2c(OC)c(O)cc(O)c2c1=O [ONGA100]
- inhibition of the progress of fibrosis (differentiation into myofibroblasts): no effects or very low effects
- inhibition of the progress of fibrosis (differentiation into myofibroblasts) (listed as Chemical Formula 8): no effects on the inhibition of fibrosis

SMILES: COc1c(-c2ccc(O)cc2)oc2cc(O)cc(O)c2c1=O [ONGB200]
- inhibition of the progress of fibrosis (differentiation into myofibroblasts): no effects or very low effects
- inhibition of the progress of fibrosis (differentiation into myofibroblasts) (listed as Chemical Formula 10): no effects on the inhibition of fibrosis

SMILES: COc1cc2oc(-c3ccc(O)cc3)cc(=O)c2c(O)c1OC [ONGC200, 5-hydroxy-2-(4-hydroxyphenyl)-6,7-dimethoxy-chromone]
- inhibition of the progress of fibrosis (differentiation into myofibroblasts): effective at inhibiting the progress of fibrosis

SMILES: COc1ccc(-c2cc(=O)c3c(O)c(O)c(O)cc3o2)cc1 [ONGD200]
- toxicity to ONGHEPA1 cells: toxicity such as necrosis

SMILES: COc1ccc(-c2oc3cc(O)c(OC)c(O)c3c(=O)c2OC)cc1O [ONGD400]
- toxicity to ONGHEPA1 cells: toxicity such as necrosis

SMILES: COc1c(O)cc2oc(-c3ccc(O)cc3)cc(=O)c2c1O [ONGE200, 5,7-dihydroxy-2-(4-hydroxyphenyl)-6-methoxy-chromone]
- inhibition of the progress of fibrosis (differentiation into myofibroblasts): effective at inhibiting the progress of fibrosis
- inhibition of the progress of fibrosis (differentiation into myofibroblasts) (listed as Chemical Formula 5): superior fibrosis-inhibiting effects

SMILES: O=c1cc(-c2ccc(O)c(O)c2O)oc2cc(O)cc(O)c12 [ONGE300]
- inhibition of the progress of fibrosis (differentiation into myofibroblasts): no effects or very low effects
- inhibition of the progress of fibrosis (differentiation into myofibroblasts) (listed as Chemical Formula 11): no effects on the inhibition of fibrosis

SMILES: COc1cc2oc(-c3ccc(O)c(O)c3)cc(=O)c2c(O)c1OC [ONGH200, 2-(3,4-dihydroxyphenyl)-5-hydroxy-6,7-dimethoxy-chromone]
- inhibition of the progress of fibrosis (differentiation into myofibroblasts): effective at inhibiting the progress of fibrosis
- inhibition of the progress of fibrosis (differentiation into myofibroblasts) (listed as Chemical Formula 7): superior fibrosis-inhibiting effects

SMILES: COc1cc(-c2oc3cc(O)c(OC)c(O)c3c(=O)c2OC)ccc1O [ONGH300]
- toxicity to ONGHEPA1 cells: toxicity such as necrosis

SMILES: COc1c(O)cc2oc(-c3ccc(O)c(O)c3)cc(=O)c2c1O [ONGI300, 2-(3,4-dihydroxyphenyl)-5,7-dihydroxy-6-methoxy-chromone]
- inhibition of the progress of fibrosis (differentiation into myofibroblasts): effective at inhibiting the progress of fibrosis
- inhibition of the progress of fibrosis (differentiation into myofibroblasts) (listed as Chemical Formula 3): superior fibrosis-inhibiting effects

SMILES: COc1c(O)cc(O)c2c(=O)cc(-c3ccccc3)oc12 [wogonin, reference compound]
- inhibition of the progress of fibrosis (differentiation into myofibroblasts): no effects or very low effects
- inhibition of the progress of fibrosis (differentiation into myofibroblasts) (listed as Chemical Formula 9): no effects on the inhibition of fibrosis
